These results are taken from patent US20250049970A1, “DLL3 TARGETING PEPTIDES AND CONSTRUCTS THEREOF” (MARIANA ONCOLOGY INC., priority 2023, published 2025).

Each structure is given as a SMILES string. *1 amine or outer side, *2 acyl side, *3 side chain or, on linkers, in order; H or OH if unused. Where a SMILES comes first, the peptide text is derived from it. Bridges are numbered along the chain shown (N, C = ends). [ ]: non-standard residue; d: D form. The star is where a group is joined. Ala(piperidin-4-yl) = O=C([C@H](CC1CCN([*:3])CC1)N[*:1])[*:2]; DOTA = O=C(O)CN1CCN(CC(=O)O)CCN(CC(=O)*)CCN(CC(=O)O)CC1; Trp(7-Me) = Cc1cccc2c(C[C@H](N)C(=O)O)c[nH]c12; Trp(1-Me) = Cn1cc(C[C@H](N)C(=O)O)c2ccccc21; Phe(4-F) = N[C@@H](Cc1ccc(F)cc1)C(=O)O; 1Nal = N[C@@H](Cc1cccc2ccccc12)C(=O)O; 2Nal = N[C@@H](Cc1ccc2ccccc2c1)C(=O)O; oXylylene = c1ccc(C[*:2])c(C[*:1])c1; Gly(4-THP) = N[C@H](C(=O)O)C1CCOCC1; tBuAla = CC(C)(C)C[C@H](N)C(=O)O; NMeN = CN[C@@H](CC(N)=O)C(=O)O; Chg = N[C@H](C(=O)O)C1CCCCC1; αMeP = C[C@@]1(C(=O)O)CCCN1; Aze = O=C(O)[C@@H]1CCN1; CH2 = C([*:1])[*:2]

This assay addresses T1, DLL3 (Homo sapiens, UniProt Q9NYJ7).
T1 sequence (Q9NYJ7 27-618): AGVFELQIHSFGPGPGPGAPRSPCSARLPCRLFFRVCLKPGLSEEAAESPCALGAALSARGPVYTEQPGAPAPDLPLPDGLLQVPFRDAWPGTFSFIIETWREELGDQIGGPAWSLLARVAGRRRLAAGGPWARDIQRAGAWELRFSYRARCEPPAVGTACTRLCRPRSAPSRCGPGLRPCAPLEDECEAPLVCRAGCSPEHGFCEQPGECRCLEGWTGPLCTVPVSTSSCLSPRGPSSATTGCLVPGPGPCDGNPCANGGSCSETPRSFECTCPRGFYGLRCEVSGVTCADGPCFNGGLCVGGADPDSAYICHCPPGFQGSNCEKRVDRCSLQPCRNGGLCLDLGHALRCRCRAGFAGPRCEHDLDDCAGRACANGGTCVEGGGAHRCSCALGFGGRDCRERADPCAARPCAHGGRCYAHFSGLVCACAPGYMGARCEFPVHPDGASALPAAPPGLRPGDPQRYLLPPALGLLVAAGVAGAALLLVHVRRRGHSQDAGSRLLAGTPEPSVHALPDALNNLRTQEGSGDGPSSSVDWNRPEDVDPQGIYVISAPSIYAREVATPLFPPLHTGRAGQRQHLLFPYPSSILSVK
Nature of the assay: SPR KD, biotinylated human DLL3 on streptavidin chip (Table 8). On the set-up: biotin (biotinylated). Conditions: biotinylated human DLL3 on streptavidin sensor chip, 25° C., 1:1 binding model; read-out: SPR KD. The text has this:
Biotinylated target ligand human DLL3 was immobilized on a streptavidin sensor chip. A reference surface was set up for nonspecific binding and refractive index changes. […] Sensorgram curves were fitted with 1:1 binding model, and affinity and kinetic parameters were obtained using Biacore Insight evaluation 4.0. software.

For orientation: Kd means a measure of binding affinity in units of concentration.

As to `CC(=O)N[C@@H](Cc1c[nH]c2ccccc12)C(=O)N[C@H](C(=O)N[C@H](C(=O)N[C@H]1CSSC[C@@H](C(=O)N[C@@H](Cc2c[nH]c3ccccc23)C(=O)N2CCC[C@H]2C(N)=O)NC(=O)[C@H](C)NC(=O)[C@@H](CCCCNC(=O)CN2CCN(CC(=O)O)CCN(CC(=O)O)CCN(CC(=O)O)CC2)NC(=O)[C@H](Cc2ccc3ccccc3c2)NC(=O)[C@H](CC(N)=O)NC(=O)[C@H](CC2CCNCC2)NC1=O)C1CCOCC1)[C@@H](C)O` [compound 327, Ac-W-T-(THPG)-C(3)-[3-(4-piperidinyl)-Ala]-N-(2Nal)-Lys(DOTA)-(Ala)-C(3)-W-P-CONH2] (Ac-WT[Gly(4-THP)]C[Ala(piperidin-4-yl)]N[2Nal][dK](DOTA)ACWP-NH2; disulfide 4-10), the equilibrium dissociation constant (Kd) was under 0.001 µM.

Consider `CC(=O)N[C@@H](Cc1c[nH]c2c(C)cccc12)C(=O)N[C@H](C(=O)N[C@H](C(=O)N[C@H]1CSSC[C@@H](C(=O)N[C@@H](Cc2c[nH]c3ccccc23)C(=O)N2CCC[C@H]2C(N)=O)NC(=O)[C@H](CC(=O)O)NC(=O)[C@H](CCCCNC(=O)CN2CCN(CC(=O)O)CCN(CC(=O)O)CCN(CC(=O)O)CC2)NC(=O)[C@H](Cc2ccc3ccccc3c2)NC(=O)[C@H](CC(N)=O)NC(=O)[C@H](CC2CCNCC2)NC1=O)C1CCCCC1)[C@@H](C)O` [compound 404, Ac-(7Me-Trp)-T-(Chg)-C(3)-[3-(4-piperidinyl)-Ala]-N-(2Nal)-Lys(DOTA)-D-C(3)-W-P-CONH2] (Ac-[Trp(7-Me)]T[Chg]C[Ala(piperidin-4-yl)]N[2Nal]K(DOTA)DCWP-NH2; disulfide 4-10), for which the Kd was under 0.001 µM.

Turning to `CC(=O)N[C@@H](Cc1c[nH]c2ccccc12)C(=O)N[C@H](C(=O)N[C@H](C(=O)N[C@H]1CSCc2ccccc2CSC[C@@H](C(=O)N[C@@H](Cc2c[nH]c3ccccc23)C(=O)N2CCC[C@H]2C(N)=O)NC(=O)[C@H](CC(=O)O)NC(=O)[C@H](CCCCNC(=O)CN2CCN(CC(=O)O)CCN(CC(=O)O)CCN(CC(=O)O)CC2)NC(=O)[C@H](Cc2ccc3ccccc3c2)NC(=O)[C@H](CC(N)=O)NC(=O)[C@H](CC2CCNCC2)NC1=O)C1CCCCC1)[C@@H](C)O` [compound 401, Ac-W-T-(Chg)-C(oDBX)-[3-(4-piperidinyl)-Ala]-N-(2Nal)-Lys(DOTA)-D-C(3)-W-P-CONH2] (Ac-WT[Chg]C[Ala(piperidin-4-yl)]N[2Nal]K(DOTA)DCWP-NH2; linker 4-10 via oXylylene), the equilibrium dissociation constant (Kd) fell in the range of 0.001 to 0.01 µM.

In the case of `CC[C@H](C)[C@H](NC(=O)[C@@H](NC(=O)[C@H](Cc1cccc2ccccc12)NC(C)=O)[C@@H](C)O)C(=O)N[C@H]1CSSC[C@@H](C(=O)N[C@@H](Cc2c[nH]c3ccccc23)C(=O)N2CCC[C@H]2C(N)=O)NC(=O)[C@H](CC(=O)O)NC(=O)[C@H](Cc2cnc[nH]2)NC(=O)[C@H](Cc2c[nH]c3ccccc23)NC(=O)[C@H](CC(N)=O)NC(=O)[C@H](CC(N)=O)NC1=O` [compound 25, Ac-(1Nal)-T-I-C(3)-N-N-W-H-D-C(3)-W-P-CONH2] (Ac-[1Nal]TICNNWHDCWP-NH2; disulfide 4-10), the Kd was in the range of 0.01 to 0.1 µM.

`CC(=O)N[C@@H](Cc1c[nH]c2ccccc12)C(=O)N[C@H](C(=O)N[C@H](C(=O)N[C@H]1CSSC[C@@H](C(=O)N[C@@H](Cc2c[nH]c3ccccc23)C(=O)N2CCC[C@H]2C(N)=O)NC(=O)[C@H](CC(=O)O)NC(=O)[C@H](Cc2cnc[nH]2)NC(=O)[C@H](Cc2c[nH]c3ccccc23)NC(=O)[C@H](CC(N)=O)NC(=O)[C@H](CC(N)=O)NC1=O)C1CCOCC1)[C@@H](C)O` [compound 338, Ac-W-T-(THPG)-C(3)-N-N-W-H-D-C(3)-W-P-CONH2] (Ac-WT[Gly(4-THP)]CNNWHDCWP-NH2; disulfide 4-10): the Kd fell in the range of 0.001 to 0.01 µM.

Consider `CC[C@H](C)[C@H](NC(=O)[C@@H](NC(=O)[C@H](Cc1c[nH]c2ccccc12)NC(=O)[C@H](CCSC)NC(C)=O)[C@@H](C)O)C(=O)N[C@H]1CSCSC[C@@H](C(=O)N[C@@H](Cc2c[nH]c3ccccc23)C(=O)N2CCC[C@H]2C(N)=O)NC(=O)[C@H](CC(=O)O)NC(=O)[C@H](Cc2cnc[nH]2)NC(=O)[C@H](Cc2c[nH]c3ccccc23)NC(=O)[C@H](CC(N)=O)NC(=O)[C@H](CC(N)=O)NC1=O` [compound 32, Ac-M-W-T-I-C(1)-N-N-W-H-D-C(1)-W-P-CONH2] (Ac-MWTICNNWHDCWP-NH2; linker 5-11 via CH2), for which the dissociation constant (Kd) lay within 0.01 to 0.1 µM.

With `CC[C@H](C)[C@H](NC(=O)[C@@H](NC(=O)[C@H](Cc1c[nH]c2ccccc12)NC(=O)[C@H](CCSC)NC(C)=O)[C@@H](C)O)C(=O)N[C@H]1CSSC[C@@H](C(=O)N[C@H](C)C(=O)N2CCC[C@H]2C(N)=O)NC(=O)[C@H](CC(=O)O)NC(=O)[C@H](Cc2cnc[nH]2)NC(=O)[C@H](Cc2c[nH]c3ccccc23)NC(=O)[C@H](CC(N)=O)NC(=O)[C@H](CC(N)=O)NC1=O` [compound 9, Ac-M-W-T-I-C(3)-N-N-W-H-D-C(3)-(D-Ala)-P-CONH2] (Ac-MWTICNNWHDC[dA]P-NH2; disulfide 5-11), the Kd fell in the range of 0.1 to 0.3 µM.

Take `CC(=O)N[C@@H](Cc1c[nH]c2ccccc12)C(=O)N[C@H](C(=O)N[C@@H](CC(C)(C)C)C(=O)N[C@H]1CSCSC[C@@H](C(=O)N[C@@H](Cc2c[nH]c3ccccc23)C(=O)N2CCC[C@@]2(C)C(=O)O)NC(=O)[C@H](CC(=O)O)NC(=O)[C@H](CCCCNC(=O)CN2CCN(CC(=O)O)CCN(CC(=O)O)CCN(CC(=O)O)CC2)NC(=O)[C@H](Cc2ccc3ccccc3c2)NC(=O)[C@H](CC(N)=O)NC(=O)[C@H](CC2CCNCC2)NC1=O)[C@@H](C)O` [compound 436, Ac-W-T-(t-Bu-Ala)-C(1)-[3-(4-piperidinyl)-Ala]-N-(2Nal)-Lys(DOTA)-D-C(1)-W-(aMe-P)-COOH] (Ac-WT[tBuAla]C[Ala(piperidin-4-yl)]N[2Nal]K(DOTA)DCW[αMeP]-OH; linker 4-10 via CH2): the dissociation constant Kd was under 0.001 µM.

On to `CC[C@H](C)[C@H](NC(=O)[C@@H](NC(=O)[C@H](Cc1c[nH]c2ccccc12)NC(C)=O)[C@@H](C)O)C(=O)N[C@H]1CSSC[C@@H](C(=O)N[C@@H](Cc2c[nH]c3ccccc23)C(=O)N2CCC[C@H]2C(N)=O)NC(=O)[C@H](CC(=O)O)NC(=O)[C@H](Cc2c[nH]cn2)NC(=O)[C@H](Cc2ccc(F)cc2)NC(=O)[C@H](CC(N)=O)NC(=O)[C@H](CC(N)=O)NC1=O` [compound 49, Ac-W-T-I-C(3)-N-N-(4Fluoro-F)-H-D-C(3)-W-P-CONH2] (Ac-WTICNN[Phe(4-F)]HDCWP-NH2; disulfide 4-10), for which the Kd lay in the range of 0.001 to 0.01 µM.

For `CC[C@H](C)[C@H](NC(=O)[C@@H](NC(=O)[C@H](Cc1c[nH]c2ccccc12)NC(C)=O)[C@@H](C)O)C(=O)N[C@H]1CSSC[C@@H](C(=O)N[C@@H](Cc2c[nH]c3ccccc23)C(=O)N2CC[C@H]2C(N)=O)NC(=O)[C@H](CC(=O)O)NC(=O)[C@H](Cc2cnc[nH]2)NC(=O)[C@H](Cc2c[nH]c3ccccc23)NC(=O)[C@H](CC(N)=O)NC(=O)[C@H](CC(N)=O)NC1=O` [compound 335, Ac-W-T-I-C(3)-N-N-W-H-D-C(3)-W-(Aze)-CONH2] (Ac-WTICNNWHDCW[Aze]-NH2; disulfide 4-10), the Kd lay within 0.001 to 0.01 µM.

`CC[C@H](C)[C@H](NC(=O)[C@@H](NC(=O)[C@H](Cc1cn(C)c2ccccc12)NC(=O)[C@H](CCSC)NC(C)=O)[C@@H](C)O)C(=O)N[C@H]1CSSC[C@@H](C(=O)N[C@@H](Cc2c[nH]c3ccccc23)C(=O)N2CCC[C@H]2C(N)=O)NC(=O)[C@H](CC(=O)O)NC(=O)[C@H](Cc2cnc[nH]2)NC(=O)[C@H](Cc2c[nH]c3ccccc23)NC(=O)[C@H](CC(N)=O)NC(=O)[C@H](CC(N)=O)NC1=O` [compound 41, Ac-M-(1Me-W)-T-I-C(3)-N-N-W-H-D-C(3)-W-P-CONH2] (Ac-M[Trp(1-Me)]TICNNWHDCWP-NH2; disulfide 5-11): the Kd lay within 0.01 to 0.1 µM.

For `CC[C@H](C)[C@H](NC(=O)[C@@H](NC(=O)[C@H](Cc1c[nH]c2ccccc12)NC(C)=O)[C@@H](C)O)C(=O)N[C@H]1CSSC[C@@H](C(=O)N[C@@H](Cc2c[nH]c3ccccc23)C(=O)N2CCC[C@H]2C(=O)O)NC(=O)[C@H](CC(=O)O)NC(=O)[C@H](Cc2c[nH]cn2)NC(=O)[C@H](Cc2c[nH]c3ccccc23)NC(=O)[C@H](CC(=O)O)NC(=O)[C@H](CC(N)=O)N(C)C1=O` [compound 384, Ac-W-T-I-C(3)-(NmeN)-N-W-H-D-C(3)-W-P-CONH2] (Ac-WTIC[NMeN]DWHDCWP-OH; disulfide 4-10), the Kd was 0.01 to 0.1 µM.

Consider `CC[C@@H](C)[C@H](NC(=O)[C@@H](NC(=O)[C@H](Cc1c[nH]c2ccccc12)NC(C)=O)[C@@H](C)O)C(=O)N[C@H]1CSSC[C@@H](C(=O)N[C@@H](Cc2c[nH]c3ccccc23)C(=O)N2CCC[C@H]2C(N)=O)NC(=O)[C@H](CC(=O)O)NC(=O)[C@H](CCCCNC(=O)CN2CCN(CC(=O)O)CCN(CC(=O)O)CCN(CC(=O)O)CC2)NC(=O)[C@H](Cc2ccc3ccccc3c2)NC(=O)[C@H](CC(N)=O)NC(=O)C(CN2CCOCC2)NC1=O` (single isomer, unassigned) [compound 307, Ac-W-T-(Allo-Ile)-C(3)-[3-(1-morpholinyl)-Ala]-N-(2Nal)-Lys(DOTA)-D-C(3)-W-P-CONH2], for which the dissociation constant Kd was 0.001 to 0.01 µM.
